From patent US20250034264A1, “REGULATING T CELL IMMUNE RESPONSE THROUGH IGF-I RECEPTOR (IGF-1R)” (The Regents of the University of Michigan, priority 2021, published 2025)

Key:
Type in all cases: cell-based, human
fibrocytes [1] = assay: RNA Pol II ChIP transcription assay; details: 50 μg/mL
Experimental: RNA Pol II ChIP transcription assay Transcriptional assays were performed using the method of Wells and Farnham (Methods (San Diego, Calif.) 26, 48-56(2002). Confluent cultures were treated with human Isotype IgG or teprotumumab (50 μg/mL) in DMEM with 10% FBS for 3 d, rinsed, and shifted to DMEM with 1% FBS for 16 h with the respective additives, and then treated without or with bTSH (5 mU/mL) for 2 h. Cross-linked protein/DNA and isolated chromatin fragments were immunoprecipitated with target antibodies: anti-HLA-DPB1 [EPR11226] (cat. #abl57210), anti-CD80 [EPR22183] (cat. #ab225674), anti-CD86 [EPR21962] (cat. #ab239075), and anti-PD-L1 [EPR19759](cat. #ab213524),) from Abcam (Cambridge, MA) using the Pierce™ Agarose Chip Kit (Thermo Scientific, cat #26156). Eluted fractions were reverse cross-linked and isolated DNA subjected to RT-PCR using EpiTect ChIP qPCR Primer Assay for human HLA-DRA (cat. #GPH1011269(-)02A, HLA-DRB1 (cat. #GPH1024837(-)02A), CD80 (cat. #GPH1023189(-)02A), CD86 (cat. #GPH1009502(-)02A), PD-L1 (cat. #GPH1012902(-)02A, Qiagen. GAPDH served as the housekeeping gene and values were generated according to the protocol provided by the supplier.

CD34+ fibrocytes = assay: MHC II, CD80, CD86, PD-L1 expression in cultured fibrocytes (RT-qPCR, flow cytometry)
Description: Fibrocyte and T cell isolation and cultivation. Peripheral blood mononuclear cells (PBMCs) were obtained from the venous circulation of clinic patients with GD, TAO or from healthy donors after obtaining informed consent. PBMCs were also obtained from Red Cross donor plasmapheresis filters. They were isolated by Ficoll-Histopaque (Sigma-Aldrich, St. Louis, MO) density gradient centrifugation. Fibrocytes were cultivated as described (Bucala, R, et al., (1994) Mol Med 1, 71-81, incorporated herein by reference in its entirety) except that culture substrata remained uncoated with fibronectin, as previously described (Douglas, R. S., et al. (2010) The Journal of clinical endocrinology and metabolism 95, 430-438). Isolated PBMCs (1×10^6-1×107) were inoculated in six-well plates covered with DMEM containing 10% FBS and incubated in 10-14 days. Adherent monolayers (<5% of the starting population) were washed with PBS and detached using accutase (Millipore) treatment, or mechanical scraping following accutase treatment. Culture purity was routinely confirmed by FACS analysis to be >90% fibrocytes by confirming the CD31^−CD45^+CD34^+CXCR4^+Col I^+TSFR^high phenotype.
Invariably, a small population of tightly adherent T cells were found in the fibrocyte cultures, consistent with the previous findings. Culture viability was routinely verified to be >90%. CD4^+ T cells were enriched using the CD4 isolation cocktail (Cat #0.130-096-533, Miltenyi Biotec, San Diego, CA) followed by negative selection using a magnetic column (Cat #0.130-042-401) according to manufacturer's protocol. Fibrocytes and isolated T cells were cultured and remained untreated or were incubated with human IgG isotype control (5 μg/ml) or teprotumumab (50 μg/mL) for 7 to 9 days. Single cell suspensions were stained with anti-human CD4, CD3, CD34, MHC-2, CD80, CD86, and PD-L1 (BD Biosciences) for 30 min, rinsed and fixed with CytoPerm/CytoFix (BD). They were then stained with anti-human INFγ and IL-17A for 20 min, rinsed, and subjected to the flow cytometry analysis. Gated CD34^+CXCR4^+ fibrocytes and CD4^+CD3^+ T cells were analyzed using quadrant settings based on negative isotype staining.
In vitro studies of CD34^+ fibrocytes and T cells PBMC and GD-OF monolayers were treated in vitro with human IgG isotype control (5 μg/ml), teprotumumab (50 μg/mL), H7 (5 μg/mL), linsitinib (1 μM), bTSH (5 mIU/mL), M22 (1 μg/mL), or IGF-1 (10 nM) for the intervals indicted in the figure legends in a 37° C., 5% CO2, humidified incubator until confluent. Brefeldin A (0.66 μl/ml), (Golgi Stop™, BD Biosciences), phorbol 12-myristate 13-acetate (PMA) (50 ng/ml) and ionomycin (1 μg/mL) were added for 5 h. Cells were rinsed with flow cytometry buffer (1×PBS, 0.5% BSA, 0.1% sodium azide) and stained with the relevant monoclonal antibodies.
(§1) Real-time PCR Confluent fibrocyte and GD-OF cultures were incubated with bTSH (5 mIU/mL), teprotumumab (50 μg/mL) or linsitinib (1 μM) for the time intervals indicated, washed with PBS and RNA was extracted with the Aurum Total RNA Mini Kit (cat. #732-6820, Bio-Rad, Hercules, CA). Cellular RNA (2 μg) was reverse transcribed using QuantiTect Reverse Transcription kit (cat. #205314, Qiagen (Germantown, MD) and real-time PCR was performed using an Applied Biosystems instrument with QuantiTect SYBR Green PCR kit (cat. no. 204143; Qiagen, Frederick, MD). Primer sequences were as follows.

fibrocytes [2] = assay: AIRE and thyroid autoantigen (Tg, TPO, NIS) mRNA expression; details: 50 μg/mL 7-9 days; bTSH 5 mIU/mL 6 h; vs isotype control mAb
Experimental: FIGS. 9A-9D are graphs showing the effect of teprotumumab on bovine thyrotropin or thyroid-stimulating hormone (bTSH) induced thyroid specific genes thyroglobulin (Tg), sodium iodide symporter (NIS), thyroperoxidase (TPO), and autoimmune regulator protein (AIRE) in fibrocytes. Confluent fibrocyte cultures were treated with or without teprotumumab (50 μg/ml) and human Isotype IgG for 7-9 d, followed by bTSH (5 mIU/mL) for 6 h. Monolayers were washed with PBS and RNA was extracted and reverse transcribed. Harvested cDNA was subjected to quantitative real-time PCR for AIRE (FIG. 9A), Tg (FIG. 9B), TPO (FIG. 9C), and NIS (FIG. 9D) mRNA levels. Values were normalized to their respective GAPDH levels and are expressed as the mean f SD of three independent determinations. Experiments were repeated three times. *, P<0.05; **, p<0.01.
as §1

[3] = fibrocytes from GD patients (n=28), 50 μg/mL, 9 d
[4] = teprotumumab 50 μg/mL, time-dependent over 9 d treatment

With teprotumumab the “basal and bTSH-induced transcription of MHC II, CD80, CD86, PD-L1 genes” value (fibrocytes [1]) was “attenuated”, the “effect on MHC II, CD80, CD86, PD-L1 expression, teprotumumab compared with TSHR inhibitor ML224” value (CD34+ fibrocytes; 9 d, single agents and in combination) was “effective” and the “surface proteins MHC II, CD80, CD86, PD-L1 at 9 days” value (CD34+ fibrocytes; 9 days) was “uniformly reduced to levels of detectability or below”. For the same substance, the “induction of MHC II, CD80, CD86, PD-L1 surface proteins” value (CD34+ fibrocytes; bTSH-treated fibrocytes) was “blocked”, the “frequency of CD34+ fibrocytes” value (CD34+ fibrocytes; cultures from GD patients and healthy controls) was “unaffected” and the “reduction in level of CD80 cell-surface protein” value (CD34+ fibrocytes; [3]) was 52%. For the same substance, the “reduction in level of CD86 cell-surface protein” value (CD34+ fibrocytes; [3]) was 49%, the “reduction in level of MHC II cell-surface protein” value (CD34+ fibrocytes; [3]) was 57% and the “reduction in level of PD-L1 cell-surface protein” value (CD34+ fibrocytes; [3]) was 47%. The “induction of MHC II, CD80, CD86, PD-L1 mRNA by bTSH and M22” value (CD34+ fibrocytes; teprotumumab 50 μg/mL, 1H7 5 μg/mL, linsitinib 1 μM) was “blocked”, the “protein levels of MHC II, CD80, CD86, PD-L1” value (CD34+ fibrocytes; [4]) was “substantially reduced” and the “steady-state mRNA levels of MHC II, CD80, CD86, PD-L1” value (CD34+ fibrocytes; [4]) was “substantially reduced”. For the same substance, the “AIRE basal expression and induction by bTSH” value (fibrocytes [2]) was “inhibited”, the “NIS basal expression and induction by bTSH” value (fibrocytes [2]) was “inhibited” and the “TPO basal expression and induction by bTSH” value (fibrocytes [2]) was “inhibited”. The “Tg basal expression and induction by bTSH” value (fibrocytes [2]) was “inhibited”.
